In patent US20190343907A1, “Synergistic Compositions and Methods of Achieving Homeostasis in Mammalian Systems” (priority 2017, published 2019):

What was measured:
[1] = test system: migraine headaches; assay: Case history: migraine headaches; type: in vivo, human; conditions: prescription, same subject
Excerpt: A person experienced stress-induced episodes of migraine headaches five to six times/year, each preceded by a “trigger signal” of slight dizziness or light-headedness. […] The lotion of Example 1 was supplied by the subject. […] No migraine episodes have occurred in the past eight months.

[2] = test system: shingles; assay: Case history: shingles; type: in vivo, human; conditions: prescription taken, within 1 week
Excerpt: A person was diagnosed with shingles on the lower jaw and on the scalp. […] The subject was given the lotion of Example 1 with instructions to pre-treat the area with a menthol cream five minutes before applying the treatment cream. Twice daily application to the border of the shingles lesions along the axis of red streaks prevented further expansion of the […] lesions. In areas of blisters that had not ruptured, application of the treatment cream caused the blisters to recede and not rupture. […] Episodes of recurring post-herpetic neuralgia were treated successfully over the next six weeks with the cream giving reduction of redness, itching and pain.

Compound | migraine pain relief [1] | relief from pain or itching [2]
CNS(=O)(=O)Cc1ccc2[nH]cc(CCN(C)C)c2c1 [Sumatriptan] | slow to relieve the pain | –
Nc1nc2c(ncn2COCCO)c(=O)[nH]1 [acyclovir] | – | no relief from pain or itching
